In article PMC7677376 (Cell Discovery, 2020):

Target: T1, MlaFEDB (Acinetobacter baumannii, UniProt A0A086HZU3)
T1 construct: gene ttg2A
Conditions: 1 mM vanadate; traps ADP-vanadate at the MlaF ATP sites

T1 sequence (V5V9K5 entry or part of it): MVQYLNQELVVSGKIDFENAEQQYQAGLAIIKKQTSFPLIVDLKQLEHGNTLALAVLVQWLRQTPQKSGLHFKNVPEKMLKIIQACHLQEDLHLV
T1 sequence (V5V9F4 entry or part of it, further chain): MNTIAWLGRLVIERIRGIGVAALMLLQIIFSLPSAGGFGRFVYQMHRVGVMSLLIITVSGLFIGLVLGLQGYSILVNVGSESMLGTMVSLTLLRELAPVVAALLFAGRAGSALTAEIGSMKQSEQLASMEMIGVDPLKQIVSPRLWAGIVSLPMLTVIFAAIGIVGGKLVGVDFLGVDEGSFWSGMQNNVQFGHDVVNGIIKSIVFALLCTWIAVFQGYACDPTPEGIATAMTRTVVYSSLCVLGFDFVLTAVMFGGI
T1 sequence (A0A086HZU3 entry or part of it): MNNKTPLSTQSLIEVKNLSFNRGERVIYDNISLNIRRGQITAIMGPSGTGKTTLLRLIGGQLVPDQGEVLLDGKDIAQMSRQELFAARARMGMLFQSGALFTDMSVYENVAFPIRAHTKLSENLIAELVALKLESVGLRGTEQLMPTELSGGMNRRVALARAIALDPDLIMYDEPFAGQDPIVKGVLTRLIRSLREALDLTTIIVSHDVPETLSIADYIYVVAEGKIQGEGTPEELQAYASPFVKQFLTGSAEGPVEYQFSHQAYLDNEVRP
T1 sequence (V5V921 entry or part of it, further chain): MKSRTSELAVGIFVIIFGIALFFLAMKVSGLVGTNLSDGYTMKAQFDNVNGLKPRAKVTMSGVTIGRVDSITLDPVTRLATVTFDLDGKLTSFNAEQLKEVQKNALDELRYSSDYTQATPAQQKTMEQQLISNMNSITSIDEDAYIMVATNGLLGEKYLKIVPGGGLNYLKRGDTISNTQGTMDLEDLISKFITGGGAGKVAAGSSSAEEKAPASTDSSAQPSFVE

Structure (SMILES): [O]=[V]([OH])([OH])[OH] [sodium ortho-vanadate]
- % inhibition at 1 mM: ~ 50%
